Source: patent publication US20250177557A1, “METHODS OF PRODUCING MICROBUBBLE DRUG CONJUGATES, VIRAL GENE THERAPY MICROBUBBLE CONJUGATES AND TARGETED MICROBUBBLES” (priority 2022, published 2025)

Legend:
[1] = brain mets patients; cited from earlier work
[2] = patients; cited from earlier work
human SHSY-5Y cells = experiment: Neuroprotection of differentiated SHSY-5Y cells against parkinsonian neurotoxins (CFDA cell viability); type: cell-based
Method: Neuroprotection was tested in the well-established neuronal model of human SHSY-5Y cells (Lopes, F. M.,. et al. (2010) Brain Res. 1337, 85-94) treated with parkinsonian neurotoxins. Human SHSY-5Y cells were grown in 24 well dishes and differentiated into neuron-like cells by treatment with 10 μM retinoic acid (RA) for 7 days (FIG. 8A).
Cell viability was quantified by the CFDA assay as described previously (Sandhu, J. K., et al. (2009) Neurobiol. Dis. 33, 405-414.).
Recombinant human GDNF at 50 ng/ml was used as a positive control.

[3] = MR guided focused ultrasound, one hemisphere sonicated
Method: AAV2-GFP MDCs were injected into healthy rodents and FUS sonications used to open the BBB in the two brain regions affected by Parkinson's disease, the striatum (ST) and substantia nigra (SN). MR contrast agent gadolinium was co-injected and MR imaging performed to confirm BBB opening in the two regions.
CDNF protein neurotrophic drug was conjugated to MDCs and delivered to the SN and ST in this manner. Only one hemisphere was sonicated so the animals acted as their own control.

Keytruda: checkpoint inhibitor antibody
Response, share of patients [1]: about one third

ipilimumab
Incidence of grade 3 or -4 treatment-related AEs [2]: 28%

CDNF-MDCs: Cerebral Dopamine Neurotrophic factor protein conjugated to microbubbles
Neuroprotection against thapsigargin (cell viability) (human SHSY-5Y cells; 1.0 μM thapsigargin ~16 h, pre-treatment, rhGDNF 50 ng/ml, CDNF-MDCs 25-250 ng/ml): completely protected
Neuroprotection against MPP+ (cell viability) (human SHSY-5Y cells; 1.0 mM MPP+ ~16 h, pre-treatment, rhGDNF 50 ng/ml, CDNF-MDCs 25-250 ng/ml): completely protected
Concentrations at which maximum neuroprotection was reached (human SHSY-5Y cells; MPP+ or thapsigargin): 25 to 250 ng/mL
CDNF concentration delivered to ST and SN, sonicated vs. non-sonicated hemisphere (ELISA tissue analysis) [3]: significant CDNF concentration delivered to the sonicated hemispheres
